Experimental data as given in patent US10414811B2, “Protease-resistant lipidated GLP-1 analogs” (MEDIMMUNE LIMITED, priority 2015, dated 2019).
Where two headings read alike, the source gives them in different places. Numbered stars: 1 amine (or outer) side, 2 acyl side, 3 side chain; on linkers, the order of the positions; unused ones are H or OH. Square brackets hold non-standard residues; d marks the D form. Side chains are listed from the residue outwards. Peptide text beside a SMILES is read from it. * marks the point of attachment. C16 diacid = O=C(O)CCCCCCCCCCCCCCC(=O)*; γGlu = O=C(O)[C@H](CCC(=O)[*:2])N[*:1]; αMeF = C[C@](N)(Cc1ccccc1)C(=O)O; αMeK = C[C@](N)(CCCCN)C(=O)O; Lauroyl = CCCCCCCCCCCC(=O)*; αMeS = C[C@](N)(CO)C(=O)O; AEEA = NCCOCCOCC(=O)O; Aib = CC(C)(N)C(=O)O

Legend:
Type in all cases: cell-based
[1] = biological target: T1, human glucagon receptor (GCGR) (Homo sapiens, UniProt P47871); test: cAMP assay, human GCGR cells
T1 construct: expressed in transfected cells
Method in brief: (§1)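 Peptide-stimulated cAMP measured by two-step HTRF after a 30 min room-temperature incubation with receptor-expressing cells (hGLP-1R, hGIPR at 1×10^5 cells/ml; hGCGR at 2×10^5 cells/ml). Duplicate dilutions; EC50 from 4-parameter logistic fit of % Delta F.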

[2] = biological target: T2, human glucose-dependent insulinotropic peptide receptor (GIPR) (Homo sapiens, UniProt P48546); test: cAMP assay, human GIPR cells
T2 construct: expressed in transfected cells
T2 sequence (P48546 22-466): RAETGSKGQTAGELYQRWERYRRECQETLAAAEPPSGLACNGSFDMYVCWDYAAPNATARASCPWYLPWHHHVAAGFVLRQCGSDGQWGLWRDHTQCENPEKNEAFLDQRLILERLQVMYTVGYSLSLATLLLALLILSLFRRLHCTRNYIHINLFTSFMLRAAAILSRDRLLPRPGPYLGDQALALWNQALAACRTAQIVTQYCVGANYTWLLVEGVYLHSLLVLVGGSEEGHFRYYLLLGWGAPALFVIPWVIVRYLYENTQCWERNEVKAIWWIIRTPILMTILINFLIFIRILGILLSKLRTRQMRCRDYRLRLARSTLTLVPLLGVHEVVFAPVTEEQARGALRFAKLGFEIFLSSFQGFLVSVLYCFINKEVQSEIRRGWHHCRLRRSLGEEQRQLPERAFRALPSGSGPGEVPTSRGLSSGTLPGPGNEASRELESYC
Method in brief: as §1

[3] = biological target: T3, human GLP-1 receptor (GLP-1R) (Homo sapiens, UniProt P43220); test: cAMP assay, human GLP-1R cells
T3 construct: expressed in transfected cells
Method in brief: as §1

[4] = tris-lipidated peptides, second replicate, read-out: Primary assay EC50 Gluc-R (n2)
[5] = tris-lipidated peptides, first replicate, read-out: Primary assay EC50 GIP-R (n1)
[6] = tris-lipidated peptides, mean of n1 and n2, read-out: Primary assay EC50 Mean pM GLP-1R
[7] = tris-lipidated peptides, replicate n1, read-out: Primary assay EC50 GLP-1R n1
[8] = tris-lipidated peptides, replicate n2, read-out: Primary assay EC50 GLP-1R n2

T1 sequence (P47871 26-477): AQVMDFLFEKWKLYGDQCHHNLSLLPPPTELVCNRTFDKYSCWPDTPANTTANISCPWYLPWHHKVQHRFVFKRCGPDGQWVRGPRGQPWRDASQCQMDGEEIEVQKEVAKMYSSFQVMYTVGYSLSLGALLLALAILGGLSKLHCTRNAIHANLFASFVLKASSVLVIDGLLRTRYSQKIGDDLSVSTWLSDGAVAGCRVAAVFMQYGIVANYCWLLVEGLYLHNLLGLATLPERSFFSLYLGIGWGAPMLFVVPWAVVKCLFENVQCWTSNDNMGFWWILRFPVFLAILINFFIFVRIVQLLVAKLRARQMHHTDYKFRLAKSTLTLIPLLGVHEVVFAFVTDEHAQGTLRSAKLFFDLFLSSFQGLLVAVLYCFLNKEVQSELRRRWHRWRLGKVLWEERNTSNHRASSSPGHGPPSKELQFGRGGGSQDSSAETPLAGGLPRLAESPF
T3 sequence (P43220 24-463): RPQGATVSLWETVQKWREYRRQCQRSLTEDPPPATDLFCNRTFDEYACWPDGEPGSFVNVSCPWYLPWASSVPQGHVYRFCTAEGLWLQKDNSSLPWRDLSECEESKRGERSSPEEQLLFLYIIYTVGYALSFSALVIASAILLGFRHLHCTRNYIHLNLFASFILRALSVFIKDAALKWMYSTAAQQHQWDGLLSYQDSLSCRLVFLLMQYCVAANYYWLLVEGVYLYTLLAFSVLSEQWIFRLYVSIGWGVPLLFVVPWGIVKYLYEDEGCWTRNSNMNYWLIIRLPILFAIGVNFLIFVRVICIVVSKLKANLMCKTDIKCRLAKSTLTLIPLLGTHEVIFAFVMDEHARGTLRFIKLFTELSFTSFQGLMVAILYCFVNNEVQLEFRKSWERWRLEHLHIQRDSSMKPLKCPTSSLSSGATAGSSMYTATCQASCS

CC[C@H](C)[C@H](NC(=O)[C@H](Cc1ccccc1)NC(=O)[C@H](CCC(=O)O)NC(=O)[C@](C)(CCCCN)NC(=O)[C@H](C)NC(=O)[C@H](C)NC(=O)[C@H](CCC(=O)O)NC(=O)CNC(=O)[C@H](CCC(=O)O)NC(=O)[C@H](CC(C)C)NC(=O)[C@H](Cc1ccc(O)cc1)NC(=O)[C@H](CO)NC(=O)[C@H](CO)NC(=O)[C@H](CCCCNC(=O)COCCOCCNC(=O)COCCOCCNC(=O)CC[C@H](NC(=O)CCCCCCCCCCCCCCC(=O)O)C(=O)O)NC(=O)[C@H](CC(=O)O)NC(=O)[C@H](CO)NC(=O)[C@@H](NC(=O)[C@](C)(Cc1ccccc1)NC(=O)[C@H](CO)NC(=O)CNC(=O)[C@H](CCC(=O)O)NC(=O)C(C)(C)NC(=O)[C@@H](N)Cc1c[nH]cn1)[C@@H](C)O)C(=O)N[C@@H](C)C(=O)N[C@@H](CCCCNC(=O)COCCOCCNC(=O)COCCOCCNC(=O)CC[C@H](NC(=O)CCCCCCCCCCCCCCC(=O)O)C(=O)O)C(=O)N[C@H](C(=O)N[C@H](C(=O)N[C@@H](CCC(=O)O)C(=O)NCC(=O)NCC(N)=O)C(C)C)C(C)C [compound 260] (H-H[Aib]EGS[αMeF]TSDK([AEEA-AEEA-γGlu-C16 diacid])SSYLEGEAA[αMeK]EFIAK([AEEA-AEEA-γGlu-C16 diacid])VVEGG-NH2; N-terminus assumed)
EC50 ([1]; bis-lipidated peptides, first replicate, read-out: Primary assay EC50 Gluc-R (n1)): ≥ 21.9 nM
EC50 ([2]; bis-lipidated peptides, first replicate, read-out: Primary assay EC50 GIP-R (n1)): ≥ 21.9 nM
EC50 ([3]; bis-lipidated peptides, mean of n1 and n2, read-out: Primary assay EC50 Mean pM GLP-1R): 388 pM
EC50 ([3]; bis-lipidated peptides, replicate n1, read-out: Primary assay EC50 GLP-1R n1): 334 pM
EC50 ([3]; bis-lipidated peptides, replicate n2, read-out: Primary assay EC50 GLP-1R n2): 443 pM

CCCCCCCCCCCC(=O)N[C@@H](CCC(=O)NCCOCCOCC(=O)NCCOCCOCC(=O)NCCCC[C@H](NC(=O)CNC(=O)[C@H](CCC(=O)O)NC(=O)[C@H](CC(C)C)NC(=O)[C@H](Cc1ccc(O)cc1)NC(=O)[C@H](CO)NC(=O)[C@H](CO)NC(=O)[C@H](CCCCNC(=O)COCCOCCNC(=O)COCCOCCNC(=O)CC[C@H](NC(=O)CCCCCCCCCCC)C(=O)O)NC(=O)[C@H](CC(=O)O)NC(=O)[C@H](CO)NC(=O)[C@@H](NC(=O)[C@](C)(Cc1ccccc1)NC(=O)[C@H](CO)NC(=O)CNC(=O)[C@H](CCC(=O)O)NC(=O)C(C)(C)NC(=O)[C@@H](N)Cc1c[nH]cn1)[C@@H](C)O)C(=O)N[C@@H](C)C(=O)N[C@@H](C)C(=O)N[C@@](C)(CCCCN)C(=O)N[C@@H](CCC(=O)O)C(=O)N[C@@H](Cc1ccccc1)C(=O)N[C@H](C(=O)N[C@@H](CCCCNC(=O)COCCOCCNC(=O)COCCOCCNC(=O)CC[C@H](NC(=O)CCCCCCCCCCC)C(=O)O)C(=O)N[C@@H](Cc1ccccc1)C(=O)N[C@H](C(=O)N[C@H](C(=O)N[C@@H](CCC(=O)O)C(=O)NCC(=O)NCC(N)=O)C(C)C)C(C)C)[C@@H](C)CC)C(=O)O [compound 440] (H-H[Aib]EGS[αMeF]TSDK([AEEA-AEEA-γGlu-Lauroyl])SSYLEGK([AEEA-AEEA-γGlu-Lauroyl])AA[αMeK]EFIK([AEEA-AEEA-γGlu-Lauroyl])FVVEGG-NH2; N-terminus assumed)
EC50 [1, 4]: 19.7 nM
EC50 [2, 5]: 19.7 nM
EC50 [3, 6]: 130 pM
EC50 [3, 7]: 96.7 pM
EC50 [3, 8]: 164 pM

CCCCCCCCCCCC(=O)N[C@@H](CCC(=O)NCCOCCOCC(=O)NCCOCCOCC(=O)NCCCC[C@H](NC(=O)[C@H](CCC(=O)O)NC(=O)CNC(=O)[C@H](CCC(=O)O)NC(=O)[C@H](CC(C)C)NC(=O)[C@H](Cc1ccc(O)cc1)NC(=O)[C@H](CO)NC(=O)[C@H](CO)NC(=O)[C@H](CCCCNC(=O)COCCOCCNC(=O)COCCOCCNC(=O)CC[C@H](NC(=O)CCCCCCCCCCC)C(=O)O)NC(=O)[C@H](CC(=O)O)NC(=O)[C@H](CO)NC(=O)[C@@H](NC(=O)[C@](C)(Cc1ccccc1)NC(=O)[C@H](CO)NC(=O)CNC(=O)[C@H](CCC(=O)O)NC(=O)C(C)(C)NC(=O)[C@@H](N)Cc1c[nH]cn1)[C@@H](C)O)C(=O)N[C@@H](C)C(=O)N[C@@](C)(CCCCN)C(=O)N[C@@H](CCC(=O)O)C(=O)N[C@@H](Cc1ccccc1)C(=O)N[C@H](C(=O)N[C@@H](CCCCNC(=O)COCCOCCNC(=O)COCCOCCNC(=O)CC[C@H](NC(=O)CCCCCCCCCCC)C(=O)O)C(=O)N[C@@H](Cc1ccccc1)C(=O)N[C@H](C(=O)N[C@H](C(=O)N[C@@H](CCC(=O)O)C(=O)NCC(=O)NCC(N)=O)C(C)C)C(C)C)[C@@H](C)CC)C(=O)O [compound 441] (H-H[Aib]EGS[αMeF]TSDK([AEEA-AEEA-γGlu-Lauroyl])SSYLEGEK([AEEA-AEEA-γGlu-Lauroyl])A[αMeK]EFIK([AEEA-AEEA-γGlu-Lauroyl])FVVEGG-NH2)
EC50 [1, 4]: 19.5 nM
EC50 ([2]; tris-lipidated peptides, second replicate, read-out: Primary assay EC50 GIP-R (n2)): 19.5 nM
EC50 [3, 6]: 176 pM
EC50 [3, 7]: 110 pM
EC50 [3, 8]: 241 pM

CCCCCCCCCCCC(=O)N[C@@H](CCC(=O)NCCOCCOCC(=O)NCCOCCOCC(=O)NCCCC[C@H](NC(=O)[C@H](CC(=O)O)NC(=O)[C@H](CO)NC(=O)[C@@H](NC(=O)[C@](C)(Cc1ccccc1)NC(=O)[C@H](CO)NC(=O)CNC(=O)[C@H](CCC(=O)O)NC(=O)C(C)(C)NC(=O)[C@@H](N)Cc1c[nH]cn1)[C@@H](C)O)C(=O)N[C@@H](CO)C(=O)N[C@@H](CO)C(=O)N[C@@H](Cc1ccc(O)cc1)C(=O)N[C@@H](CC(C)C)C(=O)N[C@@H](CCC(=O)O)C(=O)NCC(=O)N[C@@H](CCC(=O)O)C(=O)N[C@@H](C)C(=O)N[C@@H](C)C(=O)N[C@@](C)(CCCCN)C(=O)N[C@@H](CCCCNC(=O)COCCOCCNC(=O)COCCOCCNC(=O)CC[C@H](NC(=O)CCCCCCCCCCC)C(=O)O)C(=O)N[C@@H](Cc1ccccc1)C(=O)N[C@H](C(=O)N[C@@H](CCCCNC(=O)COCCOCCNC(=O)COCCOCCNC(=O)CC[C@H](NC(=O)CCCCCCCCCCC)C(=O)O)C(=O)N[C@@H](Cc1ccccc1)C(=O)N[C@H](C(=O)N[C@H](C(=O)N[C@@H](CCC(=O)O)C(=O)NCC(=O)NCC(N)=O)C(C)C)C(C)C)[C@@H](C)CC)C(=O)O [compound 442] (H-H[Aib]EGS[αMeF]TSDK([AEEA-AEEA-γGlu-Lauroyl])SSYLEGEAA[αMeK]K([AEEA-AEEA-γGlu-Lauroyl])FIK([AEEA-AEEA-γGlu-Lauroyl])FVVEGG-NH2; N-terminus assumed)
EC50 [1, 4]: 19.7 nM
EC50 [2, 5]: 19.7 nM
EC50 [3, 6]: 82 pM
EC50 [3, 7]: 60.9 pM
EC50 [3, 8]: 103 pM

CCCCCCCCCCCC(=O)N[C@@H](CCC(=O)NCCOCCOCC(=O)NCCOCCOCC(=O)NCCCC[C@H](NC(=O)[C@H](CCC(=O)O)NC(=O)[C@H](CC(C)C)NC(=O)[C@H](CCCCNC(=O)COCCOCCNC(=O)COCCOCCNC(=O)CC[C@H](NC(=O)CCCCCCCCCCC)C(=O)O)NC(=O)[C@H](CO)NC(=O)[C@](C)(CO)NC(=O)[C@@H](NC(=O)[C@H](CC(=O)O)NC(=O)[C@H](CO)NC(=O)[C@@H](NC(=O)[C@](C)(Cc1ccccc1)NC(=O)[C@H](CO)NC(=O)CNC(=O)[C@H](CCC(=O)O)NC(=O)C(C)(C)NC(=O)[C@@H](N)Cc1c[nH]cn1)[C@@H](C)O)C(C)C)C(=O)N[C@@H](CCC(=O)O)C(=O)N[C@@H](C)C(=O)N[C@@H](C)C(=O)N[C@@](C)(CCCCN)C(=O)N[C@@H](CCC(=O)O)C(=O)N[C@@H](Cc1ccccc1)C(=O)N[C@H](C(=O)N[C@@H](CCCCNC(=O)COCCOCCNC(=O)COCCOCCNC(=O)CC[C@H](NC(=O)CCCCCCCCCCC)C(=O)O)C(=O)N[C@@H](Cc1ccccc1)C(=O)N[C@H](C(=O)N[C@H](C(=O)N[C@@H](CCC(=O)O)C(=O)NCC(=O)NCC(N)=O)C(C)C)C(C)C)[C@@H](C)CC)C(=O)O [compound 447] (H-H[Aib]EGS[αMeF]TSDV[αMeS]SK([AEEA-AEEA-γGlu-Lauroyl])LEK([AEEA-AEEA-γGlu-Lauroyl])EAA[αMeK]EFIK([AEEA-AEEA-γGlu-Lauroyl])FVVEGG-NH2; N-terminus assumed)
EC50 ([1]; tris-lipidated peptides, first replicate, read-out: Primary assay EC50 Gluc-R (n1)): 19.7 nM
EC50 [2, 5]: 19.7 nM
EC50 [3, 6]: 150 pM
EC50 [3, 7]: 123 pM
EC50 [3, 8]: 176 pM
